Assay results: patent publication US7371766B2, “Curcumin analogs with anti-tumor and anti-angiogenic properties” (Emory University, priority 1999, dated 2008)
Where two headings read alike, the source gives them in different places.

How the values were obtained:
PC-3 = assay: cells; details: Homo sapiens, PC-3, 48 h
BT-549 = assay: cells; details: Homo sapiens, BT-549, 48 h
NCI/ADR-RES = assay: cells; details: Homo sapiens, 48 h
COLO 205 = assay: cells; details: Homo sapiens, COLO 205, 48 h
NCI-H226 = assay: cells; details: Homo sapiens, NCI-H226, 48 h
DU-145 = assay: cells; details: Homo sapiens, DU-145, 48 h
U251 = assay: cells; details: Homo sapiens, U-251, 48 h
A498 = assay: cells; details: Homo sapiens, A498, 48 h
RPMI-7951 human melanoma = assay: Neutral Red Assay, cell viability, RPMI-7951; details: Homo sapiens
MALME-3M = assay: cells; details: Homo sapiens, 48 h
SK-MEL-2 = assay: cells; details: Homo sapiens, SK-MEL-2, 48 h
HT29 = assay: cells; details: Homo sapiens, HT-29, 48 h
SNB-75 = assay: cells; details: Homo sapiens, SNB-75, 48 h
HCT-15 = assay: cells; details: Homo sapiens, HCT-15, 48 h
UACC-62 = assay: cells; details: Homo sapiens, UACC-62, 48 h
T-47D = assay: cells; details: Homo sapiens, T47D, 48 h
RXF 393 = assay: cells; details: Homo sapiens, RXF 393, 48 h
SF-268 = assay: cells; details: Homo sapiens, SF-268, 48 h
SN12C = assay: cells; details: Homo sapiens, 48 h
HL-60 (TB) = assay: cells; details: Homo sapiens, HL-60, 48 h
UACC-257 = assay: cells; details: Homo sapiens, UACC-257, 48 h
HOP-62 = assay: cells; details: Homo sapiens, HOP-62, 48 h, read-out: Median Growth Inhibitory Concentration (GI50)
ACHN = assay: cells; details: Homo sapiens, 48 h
MDA-MB-231 = assay: cells; details: Homo sapiens, MDA-MB-231, 48 h
TK-10 = assay: cells; details: Homo sapiens, TK-10, 48 h
SNB-19 = assay: cells; details: Homo sapiens, SNB-19, 48 h
NCI-H522 = assay: cells; details: Homo sapiens, NCI-H522, 48 h
M14 = assay: cells; details: Homo sapiens, M14, 48 h
[1] = read-out: Median Growth Inhibitory Concentration (GI50)
[2] = read-out: Median Lethal Concentration (LC50)
[3] = RPMI-7951, 72 h, read-out: Neutral Red Uptake, %
[4] = RPMI-7951, read-out: Cell Viability

`COc1cc(/C=C/C(=O)CC(=O)/C=C/c2ccc(O)c(OC)c2)ccc1O` [Curcumin] was tested, and the GI50 (PC-3; [1]) was 7.9 µM, the CC50 (PC-3; [2]) was 63.1 µM and the GI50 (BT-549; [1]) was 5 µM. The CC50 (BT-549; [2]) was 39.8 µM, the GI50 (NCI/ADR-RES; [1]) was 7.9 µM and the CC50 (NCI/ADR-RES; [2]) was under 100 µM. The GI50 (COLO 205; [1]) was 12.6 µM, the CC50 (COLO 205; [2]) was 63.1 µM and the GI50 (NCI-H226; [1]) was 20 µM. For the same compound, the CC50 (NCI-H226; [2]) was under 100 µM, the GI50 (DU-145; [1]) was 15.8 µM and the CC50 (DU-145; [2]) was 63.1 µM. For the same compound, the GI50 (U251; [1]) was 5 µM, the CC50 (U251; [2]) was 50.1 µM and the GI50 (A498; [1]) was 15.8 µM. The CC50 (A498; [2]) was 63.1 µM, the viability at 5 µM (RPMI-7951 human melanoma; [3]) was 100% and the viability at 20 µM (RPMI-7951 human melanoma; [3]) was 14%. The viability at 5 µM (RPMI-7951 human melanoma; [4]) was 105%, the viability at 20 µM (RPMI-7951 human melanoma; [4]) was 47% and the GI50 (MALME-3M; [1]) was 12.6 µM. For the same compound, the CC50 (MALME-3M; [2]) was 50.1 µM, the GI50 (SK-MEL-2; [1]) was 15.8 µM and the CC50 (SK-MEL-2; [2]) was 79.4 µM. It also gave a GI50 (HT29; [1]) of 5 µM, a CC50 (HT29; [2]) of under 100 µM and a GI50 (SNB-75; [1]) of 6.3 µM. It also gave a CC50 (SNB-75; [2]) of 50.1 µM, a GI50 (HCT-15; [1]) of 4 µM and a CC50 (HCT-15; [2]) of 79.4 µM. For the same compound, the GI50 (UACC-62; [1]) was 6.3 µM, the CC50 (UACC-62; [2]) was 50.1 µM and the GI50 (T-47D; [1]) was 7.9 µM. It also gave a CC50 (T-47D; [2]) of under 100 µM, a GI50 (RXF 393; [1]) of 3.2 µM and a CC50 (RXF 393; [2]) of 50.1 µM. The GI50 (SF-268; [1]) was 6.3 µM, the CC50 (SF-268; [2]) was under 100 µM and the GI50 (SN12C; [1]) was 7.9 µM. For the same compound, the CC50 (SN12C; [2]) was 63.1 µM, the GI50 (HL-60 (TB); [1]) was 7.9 µM and the CC50 (HL-60 (TB); [2]) was under 100 µM. For the same compound, the GI50 (UACC-257; [1]) was 12.6 µM, the CC50 (UACC-257; [2]) was 50.1 µM and the GI50 (HOP-62) was 4 µM. For the same compound, the GI50 (ACHN; [1]) was 12.6 µM, the CC50 (ACHN; [2]) was 63.1 µM and the GI50 (MDA-MB-231; [1]) was 20 µM. It also gave a CC50 (MDA-MB-231; [2]) of under 100 µM, a GI50 (TK-10; [1]) of 15.8 µM and a CC50 (TK-10; [2]) of 63.1 µM. The GI50 (SNB-19; [1]) was 7.9 µM, the CC50 (SNB-19; [2]) was 63.1 µM and the GI50 (NCI-H522; [1]) was 5 µM. For the same compound, the CC50 (NCI-H522; [2]) was 79.4 µM, the GI50 (M14; [1]) was 4 µM and the CC50 (M14; [2]) was 50.1 µM.
